Our source for the EC50, solubility and IC50 values is patent publication US9593149B2, “Amylin and calcitonin receptor agonist” (Novo Nordisk A/S, priority 2014, dated 2017).

Values after ≈ are worked out from the molar mass of the structure shown. Numbered stars: 1 amine (or outer) side, 2 acyl side, 3 side chain; on linkers, the order of the positions; unused ones are H or OH. Side chains are listed from the residue outwards. Peptide text beside a SMILES is read from it. * marks the point of attachment. C20 diacid = O=C(O)CCCCCCCCCCCCCCCCCCC(=O)*; C18 diacid = O=C(O)CCCCCCCCCCCCCCCCC(=O)*; γGlu = O=C(O)[C@H](CCC(=O)[*:2])N[*:1] Where only a bound is given, the exact number is not on record here.

Data set [1] addresses T1, human amylin 3(a) receptor (human calcitonin receptor + RAMP-3), BHK570 cells (Homo sapiens, UniProt O60896+P30988).
T1 construct: host or cells: BHK570
The experiment in a line: Assay (II)a functional CRE-luciferase assay with albumin, human amylin receptor. As to conditions: Tested with HSA; read-out: hAmylin-R funct. EC50. Format: cell-based. The text has this: (§1) Assay(II)a—Human Calcitonin and Amylin Receptor Assay
(§2) 1. Luciferase Assay Outline
(§3) Activation of calcitonin and amylin (co-expression of calcitonin receptor and receptor activity modifying proteins (RAMP)) receptors lead to increased intracellular concentrations of cAMP. Consequently, transcription is activated by promoters containing multiple copies of the cAMP response element (CRE). It is thus possible to measure amylin activity by the use of a CRE luciferase reporter gene introduced into BHK cells also expressing calcitonin or amylin receptors.
(§4) 2. Construction of Calcitonin (a)—and Amylin 3(a)—Receptor/CRE-Luc Cell Line.
(§5) A BHK570 cell line was stably transfected with the human calcitonin receptor and a CRE-responsive luciferase reporter gene. The cell line was further transfected with RAMP-3, using standard methods. This turns the calcitonin receptor into an amylin 3(a) receptor. Methotrexate, Neomycin, and Hygromycin are selection markers for luciferase, the calcitonin receptor, and RAMP-3, respectively.
(§6) To perform activity assays, BHK calcitonin (a) receptor- or amylin 3(a)-receptor/CRE-luc cells were seeded in white 96 well culture plates at a density of about 20.000 cells/well. […] After incubation overnight at 37° C. and 5% CO2, the growth medium was replaced by 50 μl/well assay medium (DMEM (without phenol red), Glutamax™, 10% FBS, and 10 mM Hepes, pH 7.4). Further, 50 μl/well of standard or sample in assay buffer were added.
(§7) After 3 hours incubation at 37° C. and 5% CO2, the assay medium with standard or sample were removed and replaced by 100 μl/well PBS. Further, 100 μl/well LucLite™ was added. The plates were sealed and incubated at room temperature for 30 minutes. Finally, luminescence was tested on a TopCounter (Packard) in SPC (single photon counting) mode.

In data set [2] the target is T2, human calcitonin (a) receptor, BHK570 cells (Homo sapiens, UniProt P30988).
T2 construct: host or cells: BHK570
T2 sequence (P30988 25-474): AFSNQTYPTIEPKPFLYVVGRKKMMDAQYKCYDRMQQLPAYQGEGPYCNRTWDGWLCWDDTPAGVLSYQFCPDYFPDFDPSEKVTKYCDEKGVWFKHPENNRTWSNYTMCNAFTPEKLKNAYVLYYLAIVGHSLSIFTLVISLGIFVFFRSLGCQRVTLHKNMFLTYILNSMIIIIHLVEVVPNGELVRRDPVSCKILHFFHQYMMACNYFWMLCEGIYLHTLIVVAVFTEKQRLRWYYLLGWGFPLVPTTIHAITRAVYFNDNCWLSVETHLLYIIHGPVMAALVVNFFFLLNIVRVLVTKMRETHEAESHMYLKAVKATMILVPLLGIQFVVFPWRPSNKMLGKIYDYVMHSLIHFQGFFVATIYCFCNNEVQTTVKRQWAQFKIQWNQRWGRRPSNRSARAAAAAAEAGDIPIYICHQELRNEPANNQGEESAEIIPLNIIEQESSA
Description: Assay (II)a functional CRE-luciferase assay with albumin, human calcitonin receptor. Format: cell-based. As to conditions: Tested with HSA; read-out: hCTR funct. EC50.
Description: as §1, §2, §3, §4, §5, §6, §7

Data set [3] addresses T1, human amylin 3(a) receptor (human calcitonin receptor + RAMP-3), BHK570 cells. Description: Assay (II)b functional CRE-luciferase assay without albumin, human amylin receptor. Format: cell-based. As to conditions: Tested without HSA; read-out: hAmylin-R funct. EC50. An outline of the steps:
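Agonism measured as CRE-driven luciferase luminescence after 3 h sample exposure at 37 °C, without albumin (0.1% ovalbumin, Hepes pH 7.4 medium). Reporter cells: BHK570 carrying human calcitonin receptor, co-transfected with RAMP-3 to form the amylin 3(a) receptor.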

Data set [4] addresses T2, human calcitonin (a) receptor, BHK570 cells. Description: Assay (II)b functional CRE-luciferase assay without albumin, human calcitonin receptor. It is filed as cell-based. As to conditions: Tested without HSA; read-out: hCTR funct. EC50. An outline of the steps: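 BHK570 cells stably expressing human calcitonin receptor with CRE-luciferase reporter, plus RAMP-3 for the amylin 3(a) line. Cells stimulated 3 hours at 37 °C in albumin-free assay medium (0.1% ovalbumin, 10 mM Hepes pH 7.4); cAMP-driven luciferase read by luminescence.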

A short description of data set [5]: Assay (IV) determination of solubility. It is filed as physicochemical. Here is the method:
Assay (IV)—Determination of Solubility
The mimylin peptide was dissolved in water at ˜500 nmol/ml and mixed 1:1 with a series of buffers (100 mM glycylglycine pH 3.0, 100 mM glycylglycine pH 4.0, 100 mM glycylglycine pH 5.0, 100 mM bistrispropane pH 6.0, 100 mM bistrispropane pH 6.5, 100 mM bistrispropane pH 7.0, 100 mM bistrispropane pH 7.5, 100 mM bistrispropane pH 8.0).

For data set [6], the target named is T3, human amylin receptor (human calcitonin receptor + human RAMP3), BHK tk'ts 13 cells (Homo sapiens, UniProt O60896+P30988).
T3 construct: expressed in transfected cells; host or cells: BHK tk'ts 13
T3 sequence (O60896 24-148, one chain of several): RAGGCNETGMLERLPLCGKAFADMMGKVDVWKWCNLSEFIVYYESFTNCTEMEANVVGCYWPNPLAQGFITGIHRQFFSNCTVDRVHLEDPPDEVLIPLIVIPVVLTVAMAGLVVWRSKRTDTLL
Description: Assay (Va) binding to the human amylin receptor (whole cell). As to conditions: read-out: hAmylin-R binding IC50. The method, then:
The day before the assay the cells were Seeded into Poly-D-Lysin coated 384W Opaque White, BD BioCoat plates (10000 cells/well) and Incubated overnight at 37° C., 5% CO2, 95% humidity.

The next data set deals with T4, rat calcitonin receptor (Rattus norvegicus, UniProt P32214).
T4 construct: expressed in transfected cells; host or cells: BHK tk'ts 13 (transient, FuGENE 6)
T4 sequence (P32214 25-479 isoform P32214-2 limits assumed): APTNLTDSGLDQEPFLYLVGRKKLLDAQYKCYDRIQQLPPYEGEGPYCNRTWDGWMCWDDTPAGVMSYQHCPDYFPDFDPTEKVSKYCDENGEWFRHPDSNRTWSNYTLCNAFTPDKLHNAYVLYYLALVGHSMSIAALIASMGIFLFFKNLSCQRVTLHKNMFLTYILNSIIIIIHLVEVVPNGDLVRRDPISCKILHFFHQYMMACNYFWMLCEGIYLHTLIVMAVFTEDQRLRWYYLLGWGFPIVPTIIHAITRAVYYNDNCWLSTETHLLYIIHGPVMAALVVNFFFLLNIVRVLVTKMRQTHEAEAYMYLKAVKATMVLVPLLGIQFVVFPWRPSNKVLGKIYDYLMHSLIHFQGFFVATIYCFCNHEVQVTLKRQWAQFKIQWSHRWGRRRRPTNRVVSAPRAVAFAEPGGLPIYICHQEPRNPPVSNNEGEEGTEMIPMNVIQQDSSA
The experiment in a line: Assay (VIII) binding to the rat calcitonin receptor. As to conditions: membranes; read-out: rCT-R binding IC50. An outline of the steps:
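Affinity given as IC50 from a one-site competition fit of bound radioactivity, counted by scintillation after cold HBSS washes and NaOH/SDS lysis. Membranes came from BHK tk'ts 13 cells transiently expressing the rat receptor; other conditions followed the human calcitonin receptor protocol.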

T1 sequence (O60896 24-148, one chain of several): as the sequence (O60896 24-148, one chain of several) above

In the case of `CC(C)C[C@H](NC(=O)[C@H](CCC(=O)O)NC(=O)[C@H](Cc1c[nH]cn1)NC(=O)[C@H](CC(C)C)NC(=O)[C@H](CCC(=O)O)NC(=O)[C@H](C)NC(=O)[C@H](CO)NC(=O)[C@H](CC(C)C)NC(=O)[C@H](CCCNC(=N)N)NC(=O)CNC(=O)[C@H](CC(C)C)NC(=O)[C@@H](NC(=O)[C@H](C)NC(=O)[C@@H](NC(=O)[C@@H](NC(=O)[C@H](CC(C)C)NC(=O)[C@H](CCC(=O)O)NC(=O)[C@H](CO)NC(=O)[C@H](C)NC(=O)CC[C@H](NC(=O)CCCCCCCCCCCCCCCCC(=O)O)C(=O)O)[C@@H](C)O)[C@@H](C)O)C(C)C)C(=O)N[C@@H](C)C(=O)N[C@H](C(=O)N[C@@H](CC(C)C)C(=O)N1CCC[C@H]1C(=O)N[C@@H](CCCNC(=N)N)C(=O)N[C@H](C(=O)N[C@@H](CCC(=O)O)C(=O)N[C@H](C(=O)NCC(=O)N[C@@H](CO)C(=O)NCC(=O)N[C@@H](CO)C(=O)N1CCC[C@H]1C(N)=O)[C@@H](C)O)[C@@H](C)O)[C@@H](C)O` [compound 85, [N-terminal(C18 diacid-gGlu), des1, 6T, 9V, 30S, 31G]mimylin] ({C18 diacid-γGlu}-ASELTTAVLGRLSAELHELATLPRTETGSGSP-NH2), the EC50 in data set [1] stood at 0.019 nM; in data set [2], 0.009 nM; in data set [3], 0.033 nM; in data set [4], 0.028 nM. For the same molecule, the solubility at 18 h in data set [5] (bistrispropane buffer, pH 6.5) is ≥ 200 µM; in data set [5] (bistrispropane buffer, pH 7.5), ≥ 200 µM; in data set [5] (bistrispropane buffer, pH 6.0), ≥ 200 µM; in data set [5] (bistrispropane buffer, pH 7.0) it was ≥ 200 µM; in data set [5] (bistrispropane buffer, pH 8.0) it was ≥ 200 µM; in data set [5] (glycylglycine buffer, pH 3.0), ≥ 200 µM. The solubility at 18 h is ≥ 200 µM in data set [5] (glycylglycine buffer, pH 4.0) and ≥ 200 µM in data set [5] (glycylglycine buffer, pH 5.0). In data set [6], the IC50 turned out to be 0.653 nM.

For the molecule `CC(C)C[C@H](NC(=O)CNC(=O)[C@H](CO)NC(=O)[C@H](C)NC(=O)CCCCCCCCCCCCCCCCCCC(=O)O)C(=O)N[C@@H](CO)C(=O)N[C@H](C(=O)N[C@@H](C)C(=O)N[C@@H](C)C(=O)N[C@@H](CC(C)C)C(=O)NCC(=O)N[C@@H](CCCNC(=N)N)C(=O)N[C@@H](CC(C)C)C(=O)N[C@@H](CO)C(=O)N[C@@H](CCC(N)=O)C(=O)N[C@@H](CCC(=O)O)C(=O)N[C@@H](CC(C)C)C(=O)N[C@@H](Cc1c[nH]cn1)C(=O)N[C@@H](CCC(=O)O)C(=O)N[C@@H](CC(C)C)C(=O)N[C@@H](CCC(N)=O)C(=O)N[C@H](C(=O)N[C@@H](Cc1ccc(O)cc1)C(=O)N1CCC[C@H]1C(=O)N[C@@H](CCCNC(=N)N)C(=O)N[C@H](C(=O)N[C@@H](CCC(=O)O)C(=O)N[C@H](C(=O)NCC(=O)N[C@@H](CO)C(=O)NCC(=O)N[C@H](C(=O)N[C@@H](Cc1ccc(O)cc1)C(N)=O)[C@@H](C)O)[C@@H](C)O)[C@@H](C)O)[C@@H](C)O)[C@@H](C)O` [compound 111, [N-terminal(C20 diacid), des1, 4G, 15Q, 21Q, 23Y, 30S, 31G, 32T, 33Y]mimylin] ({C20 diacid}-ASGLSTAALGRLSQELHELQTYPRTETGSGTY-NH2), the EC50 in data set [1] turned out to be 0.052 nM; in data set [2], 0.049 nM; in data set [3], 0.022 nM; in data set [4] it was 0.024 nM. The solubility at 18 h in data set [5] (bistrispropane buffer, pH 6.5) was 1 µM (≈ 3.72 µg/mL); in data set [5] (glycylglycine buffer, pH 3.0), ≥ 200 µM; in data set [5] (glycylglycine buffer, pH 4.0), 1 µM (≈ 3.72 µg/mL); in data set [5] (glycylglycine buffer, pH 5.0), 2 µM (≈ 7.44 µg/mL). Besides, the IC50 in data set [6] was found to be 0.222 nM.

In the case of `CC(C)C[C@H](NC(=O)[C@H](C)NC(=O)[C@H](C)NC(=O)[C@@H](NC(=O)[C@H](CO)NC(=O)[C@H](CC(C)C)NC(=O)[C@H](CCCCNC(=O)CC[C@H](NC(=O)CCCCCCCCCCCCCCCCCCC(=O)O)C(=O)O)NC(=O)[C@H](CO)NC(=O)[C@H](C)N)[C@@H](C)O)C(=O)NCC(=O)N[C@@H](CCCNC(=N)N)C(=O)N[C@@H](CC(C)C)C(=O)N[C@@H](CO)C(=O)N[C@@H](C)C(=O)N[C@@H](CCC(=O)O)C(=O)N[C@@H](CC(C)C)C(=O)N[C@@H](Cc1c[nH]cn1)C(=O)N[C@@H](CCC(=O)O)C(=O)N[C@@H](CC(C)C)C(=O)N[C@@H](C)C(=O)N[C@H](C(=O)N[C@@H](CC(C)C)C(=O)N1CCC[C@H]1C(=O)N[C@@H](CCCNC(=N)N)C(=O)N[C@H](C(=O)N[C@@H](CCC(=O)O)C(=O)N[C@H](C(=O)NCC(=O)N[C@@H](CO)C(=O)NCC(=O)N[C@@H](CO)C(=O)N1CCC[C@H]1C(N)=O)[C@@H](C)O)[C@@H](C)O)[C@@H](C)O` [compound 52, [des1, 4K(C20 diacid-gGlu), 30S, 31G]mimylin] (H-ASK([γGlu-C20 diacid])LSTAALGRLSAELHELATLPRTETGSGSP-NH2; N-terminus assumed), the EC50 in data set [1] was 0.074 nM; in data set [2], 0.03 nM; in data set [3], 0.039 nM; in data set [4], 0.034 nM. Moreover, the solubility at 18 h in data set [5] (bistrispropane buffer, pH 6.5) was ≥ 200 µM; in data set [5] (bistrispropane buffer, pH 7.5) it was ≥ 200 µM; in data set [5] (bistrispropane buffer, pH 6.0) it was ≥ 200 µM; in data set [5] (bistrispropane buffer, pH 7.0) it was ≥ 200 µM; in data set [5] (bistrispropane buffer, pH 8.0), ≥ 200 µM; in data set [5] (glycylglycine buffer, pH 3.0), ≥ 200 µM. In addition, the solubility at 18 h is ≥ 200 µM in data set [5] (glycylglycine buffer, pH 4.0) and ≥ 200 µM in data set [5] (glycylglycine buffer, pH 5.0). At rat calcitonin receptor, the IC50 is 0.114 nM.

By EC50 is commonly meant the concentration giving half of the maximal effect. As usually defined, the solubility is how much of the substance goes into solution per volume. The low end stands for a poorly soluble substance, the high end for a readily soluble substance. Usually IC50 stands for the concentration needed to halve the response being measured.
